Patent publication US20080146555A1, “Uses of Kinase Inhibitors and Compositions Thereof” (GPC Biotech, Inc, priority 2004, published 2008)
Counter-ions that a name gives are not always drawn. Like-named read-outs stand apart in the source and are kept apart here.

How the values were obtained:
A2780 = assay: Calcein AM viability assay, A2780; type: cell-based; details: Homo sapiens
Method: Analogous cell viability assays against other cell lines were conducted as above. […] Protocol for the Calcein AM viability assay.
HCT-116 or IMR90 cells were recovered from sub-confluent plates by trypsinization and 1,000 or 4,000 cells, respectively, were plated in 24-well dishes and incubated overnight at 37° C., 5% CO2. HCT-116 cells were cultured in RPMI-1640, 10% FCS, and IMR90 cells were cultured in Minimum Essential Medium-alpha, 10% FCS. After overnight incubation to allow adherence, the media was aspirated from each well and replaced with media containing a test compound at a concentration from 0 to 250 nM, spanning a total of 7 doses. The plates were returned to the incubator and cultured for an additional 72 hours (3 days). […] After 72-hours incubation with the test compound, the cells were washed twice with 1×PBS, taking special care to remove all residual buffer.
A 5 μM Calcein AM solution was prepared by dissolving a 50 μg aliquot of Calcein (Molecular Probes catalog #C3100) in 50 μl DMSO. After the Calcein had completely dissolved (10 minutes at room temperature), it was diluted into 10 ml PBS. Calcein/PBS (0.5 ml) was added to each well. The plates were incubated for 75 minutes at 37° C. (protected from light) and the fluorescent signal was read on a fluorescent plate reader (excitation 485/20 and emission 530/25).

AMPK = target: T1, AMPK; assay: AMPK kinase assay; type: biochemical, rat
T1 construct: purified from rat-human # = U06454
Method: • 1. AMPK Reaction Buffer: 20 mM HEPES-NaOH, pH 7.0, 0.4 mM dithiothreitol, 0.01% Brij-35, with or without 300 μM AMP. • 2. SAMS Substrate Peptide (Catalog #12-355): Use 7 μl per reaction for final assay concentration of 100 μM. • 3. AMP-Activated Protein Kinase: Dilute enzyme to 2-10 mU/μl in AMPK Reaction Buffer with or without 300 μM AMP. AMP can be purchased from Sigma-Aldrich, Catalog #A1752. • 4. [γ-^32P]ATP: Stock 1 mCi/100 μl (3000 Ci/mmol, obtained from PerkinElmer, Cat. # BLU002A). Make 10 μl aliquots (100 μCi/vial). […]
• NOTE: Negative controls should be run with all reagents containing no AMP. • 1. Add 13 μl of Reaction Buffer per assay. • 2. Add 7 μl of SAMS substrate peptide [100 μM final assay concentration]. • 3. Add 10 μl of AMP-Activated Protein Kinase [20-100 mU]. • 4. Add 10 μl of the diluted [^32P]ATP mixture. • 5. Incubate for 15 minutes at 30° C. in a shaking incubator. • 6. Spot 35 μl onto the center of a 2 cm×2 cm P81 paper square. • 7. Wash the assay squares three times with 0.75% phosphoric acid for 5 minutes. • 8. Wash the assay squares once with acetone for 5 minutes. • 9. Transfer the assay squares to vial and add 5 ml scintillation cocktail. • 10. Read in scintillation counter. Compare cpm of enzyme samples to cpm of control samples that contain no enzyme (background control).

HCT-116 cells = assay: Calcein AM viability assay, HCT-116; type: cell-based; details: Homo sapiens
Method in brief: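 Cells (HCT-116 1,000, IMR90 4,000 per well) adhered overnight, then received 7 doses from 0 to 250 nM for 72 h at 37 °C. Viability read as calcein fluorescence after 75 min with Calcein AM; IC50 values, with protein-adjusted values also obtained in HCT-116.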

cells = assay: Apoptosis detection (TUNEL staining, PARP cleavage); type: cell-based; details: 72 hours at 5× of the IC50 concentration
Method: In addition, PARP cleavage was also observed. Similarly, cells incubated with B16 are 90% TUNEL positive. Such assays can be used for apoptosis detection in any cells in contact with the subject compounds.

A129 = assay: SRB cytotoxicity, A129 parental cells; type: cell-based, human; details: Homo sapiens, 72 h
Method: In these experiments, the P-glycoprotein expressing NCI-Adr resistant subline (Vickers et al., 1989. Mol Endocrinology 3 (1):157-164) was used. […] Briefly, cells were plated in 96 well dishes 24 hours prior to compound addition. Where noted, they were exposed to verapamil for 4 hours prior to compound addition and then throughout the treatment period (72 hours). The assay was terminated with the addition of cold TCA to a final concentration of 10% and the plates were incubated for one hour at 4° C. The plates were then washed 5 times with water and 100 μl of a Sulforhodamine B solution (4%) was added to each well. The plate was then incubated for 10 minutes at room temperature before removal of unbound dye by washing with 1% acetic acid.
The parental non-mutated cell line A129 was used as a control.

[1] = enzyme purified from rat, read-out: PRKAA2 (AMPK) Inhibition (IC50)
[2] = HCT-116, non-protein adjusted, Table 4, read-out: HCT-116 viability IC50
[3] = HCT-116, text b600, read-out: HCT-116 protein-adjusted viability IC50
[4] = HCT-116, text b600, read-out: HCT-116 viability IC50

Row | SMILES | IC50 (A2780) | IC50 (AMPK; [1]) | IC50 (HCT-116 cells; [2]) | IC50 (HCT-116 cells; [3]) | IC50 (HCT-116 cells; [4]) | PARP cleavage (cells) | TUNEL positive cells (cells) | IC50 (A129) | IC50 (AMPK; kinase panel, 10 μM ATP, read-out: AMPK IC50)
1 | CC(C)N1CCN(C(=O)COc2ccc(-c3n[nH]c4c3C(=O)c3c(NC(=O)NN5CCOCC5)cccc3-4)cc2)CC1 [Compound A37] | < 10 nM | < 100 nM | < 100 nM | < 500 nM | < 50 nM | observed | about 60% | 5.7 nM | –
2 | COCCN1CCN(Cc2ccc(-c3n[nH]c4c3C(=O)c3c(NC(=O)NN5CCOCC5)cccc3-4)cc2)CC1 [Compound B16, N-[3-(4-{[4-(2-methoxyethyl)piperazinyl]methyl}phenyl)-4-oxoindeno[2,3-d]pyrazol-5-yl](morpholin-4-ylamino)carboxamide dihydrochloride] | < 10 nM | < 50 nM | < 10 nM | < 500 nM | < 10 nM | – | 90% | 8.7 nM | < 100 nM
